The source of these data is patent US20100029657A1, “Bridged, Bicyclic Heterocyclic or Spiro Bicyclic Heterocyclic Derivatives of Pyrazolo[1, 5-A]Pyrimidines, Methods for Preparation and Uses Thereof” (Wyeth, priority 2008, published 2010).

Structures are written as SMILES. Where a name gives a salt, the structure may show the parent alone. Read-outs that look alike come from different tables or passages of the source. Where only a bound is given, the exact number is not on record here.

What is called IC50 is the concentration at which inhibition is half-maximal.

The target of the assay is T1, Flag/GST-tagged recombinant human B-Raf (Homo sapiens, UniProt P15056).
T1 construct: Flag; GST; made in house; host or cells: Sf9 insect cells (B-Raf); E. coli (MEK1-GST)
The experiment in a line: B-Raf kinase assay (phosphorylation of GST-MEK1, phospho-MEK1 antibody/Europium detection). It is filed as biochemical. The settings on record: B-Raf IC50 Data for compounds of Formula A. In outline: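 Active B-Raf (0.2 nM) phosphorylates GST-MEK1 in 20 mM MOPS pH 7.2 buffer with DTT, vanadate and 0.01% Triton X-100. The Mg/ATP cocktail (200 μM ATP, 40 mM MgCl2) is added, then incubation runs 45 min at RT. Product is captured on anti-GST plates and detected by anti-phospho-MEK1 plus Europium-anti-rabbit fluorescence, giving % inhibition per concentration.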

T1 sequence (P15056 whole entry): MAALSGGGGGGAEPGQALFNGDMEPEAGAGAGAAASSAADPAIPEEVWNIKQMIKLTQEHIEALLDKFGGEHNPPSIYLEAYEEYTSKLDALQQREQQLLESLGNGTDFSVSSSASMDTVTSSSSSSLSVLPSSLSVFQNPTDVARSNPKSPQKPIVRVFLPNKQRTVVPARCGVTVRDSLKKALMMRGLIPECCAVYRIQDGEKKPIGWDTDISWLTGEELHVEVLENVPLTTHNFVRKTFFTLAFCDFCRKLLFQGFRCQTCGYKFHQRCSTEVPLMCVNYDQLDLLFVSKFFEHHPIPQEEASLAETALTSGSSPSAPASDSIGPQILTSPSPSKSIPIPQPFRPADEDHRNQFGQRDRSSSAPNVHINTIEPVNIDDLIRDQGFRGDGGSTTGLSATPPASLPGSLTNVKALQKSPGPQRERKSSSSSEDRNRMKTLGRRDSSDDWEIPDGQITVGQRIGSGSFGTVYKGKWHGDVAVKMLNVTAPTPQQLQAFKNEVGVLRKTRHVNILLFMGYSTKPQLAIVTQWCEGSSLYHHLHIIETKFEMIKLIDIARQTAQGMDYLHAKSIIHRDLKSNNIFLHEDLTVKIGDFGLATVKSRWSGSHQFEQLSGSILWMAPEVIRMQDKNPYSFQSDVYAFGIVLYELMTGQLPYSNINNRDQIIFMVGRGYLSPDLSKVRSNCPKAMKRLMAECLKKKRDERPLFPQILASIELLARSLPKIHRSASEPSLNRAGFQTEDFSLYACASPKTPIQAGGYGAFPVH

As for `CCOC(=O)N1C2CCC1CC(c1ccnc3c(-c4cccc(F)c4F)c(-c4ccncc4)nn13)C2` (stereo not drawn) [Example 65, Ethyl 3-(3-(2,3-difluorophenyl)-2-(pyridin-4-yl)pyrazolo[1,5-a]pyrimidin-7-yl)-8-azabicyclo[3.2.1]octane-8-carboxylate], under “read-out: Mean IC50”, the IC50 worked out at 0.302 µM.
Still for that read-out and setting: to `CCOC(=O)N1C2CCC1CC(c1ccnc3c(-c4cccc(NS(C)(=O)=O)c4)c(-c4ccncc4)nn13)C2` (stereo not drawn) [Example 66, Ethyl 3-(3-(3-(methylsulfonamido)phenyl)-2-(pyridin-4-yl)pyrazolo[1,5-a]pyrimidin-7-yl)-8-azabicyclo[3.2.1]octane-8-carboxylate] belongs 0.329 µM; to `CCN1C2CCC1CC(c1ccnc3c(-c4ccc(NC(=O)OC)cc4)c(-c4ccncc4)nn13)C2` (stereo not drawn) [Example 67, Methyl 4-(7-(8-ethyl-8-azabicyclo[3.2.1]octan-3-yl)-2-(pyridin-4-yl)pyrazolo[1,5-a]pyrimidin-3-yl)phenylcarbamate], more than 1 µM.
Consider `CCN1C2CCC1CC(c1ccnc3c(-c4ccc(C#N)c(O)c4)c(-c4ccncc4)nn13)C2` (stereo not drawn) [Example 68, 4-(7-(8-Ethyl-8-azabicyclo[3.2.1]octan-3-yl)-2-(pyridin-4-yl)pyrazolo[1,5-a]pyrimidin-3-yl)-2-hydroxybenzonitrile], for which the IC50 (read-out: Mean IC50) is 0.058 µM.
The same measure, in the same setting: to `CCN1C2CCC1CC(c1ccnc3c(-c4ccc(NC=O)c(O)c4)c(-c4ccncc4)nn13)C2` (stereo not drawn) [Example 72a, N-(4-(7-(8-Ethyl-8-azabicyclo[3.2.1]octan-3-yl)-2-(pyridin-4-yl)pyrazolo[1,5-a]pyrimidin-3-yl)-2-hydroxyphenyl)formamide] belongs 0.566 µM.
On the same count and under the same terms, with `CCN1C2CCC1CC(c1ccnc3c(-c4ccc(NC=O)c(OC)c4)c(-c4ccncc4)nn13)C2` (stereo not drawn) [Example 72b, N-(4-(7-(8-ethyl-8-azabicyclo[3.2.1]octan-3-yl)-2-(pyridin-4-yl)pyrazolo[1,5-a]pyrimidin-3-yl)-2-methoxyphenyl)formamide] the figure was 0.417 µM; with `CCOC(=O)N1C2CCC1CC(c1ccnc3c(-c4cccc5[nH]ncc45)c(-c4ccncc4)nn13)C2` (stereo not drawn) [Example 73, Ethyl 3-[3-(1H-indazol-4-yl)-2-pyridin-4-ylpyrazolo[1,5-a]pyrimidin-7-yl]-8-azabicyclo[3.2.1]octane-8-carboxylate], 0.002 µM.
In the case of `CCOC(=O)N1C2CCC1CC(c1ccnc3c(-c4ccc(Cl)c5[nH]ncc45)c(-c4ccncc4)nn13)C2` (stereo not drawn) [Example 75, Ethyl 3-[3-(7-chloro-1H-indazol-4-yl)-2-pyridin-4-ylpyrazolo[1,5-a]pyrimidin-7-yl]-8-azabicyclo[3.2.1]octane-8-carboxylate], the IC50 (Mean IC50 (uM)) came to 0.0003 µM.
Regarding `CCOC(=O)N1C2CCC1CC(c1ccnc3c(-c4ccc(C(F)(F)F)c5[nH]ncc45)c(-c4ccncc4)nn13)C2` (stereo not drawn) [Example 76, Ethyl 3-{2-pyridin-4-yl-3-[7-(trifluoromethyl)-1H-indazol-4-yl]pyrazolo[1,5-a]pyrimidin-7-yl}-8-azabicyclo[3.2.1]octane-8-carboxylate], the IC50 (Mean IC50 (uM)) was determined as 0.004 µM.
For the compound `CCN1C2CCC1CC(c1ccnc3c(-c4ccc(C)c5[nH]ncc45)c(-c4ccncc4)nn13)C2` (stereo not drawn) [Example 77, 7-(8-ethyl-8-azabicyclo[3.2.1]oct-3-yl)-3-(7-methyl-1H-indazol-4-yl)-2-pyridin-4-ylpyrazolo[1,5-a]pyrimidine, trifluoroacetate salt], the 50% inhibitory concentration (IC50) (read-out: Mean IC50) was 0.017 µM.
As to `CCOC(=O)N1C2CCC1CC(c1ccnc3c(-c4ccc(C)c5[nH]ncc45)c(-c4ccncc4)nn13)C2` (stereo not drawn) [Example 78, Ethyl 3-[3-(7-Methyl-1H-indazol-4-yl)-2-pyridin-4-ylpyrazolo[1,5-a]pyrimidin-7-yl]-8-azabicyclo[3.2.1]octane-8-carboxylate, trifuoroacetate salt], the IC50 (read-out: Mean IC50) was found to be 0.0007 µM.
Regarding `CCN1C2CCC1CC(c1ccnc3c(-c4ccc(Cl)c5[nH]ncc45)c(-c4ccncc4)nn13)C2` (stereo not drawn) [Example 79, 3-(7-Chloro-1H-indazol-4-yl)-7-(8-ethyl-8-azabicyclo[3.2.1]oct-3-yl)-2-pyridin-4-ylpyrazolo[1,5-a]pyrimidin, trifluoroacetate salt], for the setting “read-out: Mean IC50”, the IC50 turned out to be 0.004 µM.
On the same count and under the same terms, with `CCN1C2CCC1CC(c1ccnc3c(-c4ccc(C(F)(F)F)c5[nH]ncc45)c(-c4ccncc4)nn13)C2` (stereo not drawn) [Example 80, 7-(8-Ethyl-8-azabicyclo[3.2.1]oct-3-yl)-2-pyridin-4-yl-3-[7-(trifluoromethyl)-1H-indazol-4-yl]pyrazolo[1,5-a]pyrimidine, trifluoroacetate salt] the figure was 0.048 µM; with `CCOC(=O)N1C2CCC1CC(c1ccnc3c(-c4ccc(F)c5[nH]ncc45)c(-c4ccncc4)nn13)C2` (stereo not drawn) [Example 81, Ethyl 3-[3-(7-fluoro-1H-indazol-4-yl)-2-pyridin-4-ylpyrazolo[1,5-a]pyrimidin-7-yl]-8-azabicyclo[3.2.1]octane-8-carboxylate, trifluoroacetate salt], 0.0004 µM.
On the same count and under the same terms, with `CCN1C2CCC1CC(c1ccnc3c(-c4cc(F)c(Cl)c5[nH]ncc45)c(-c4ccncc4)nn13)C2` (stereo not drawn) [Example 82, 3-(7-Chloro-6-fluoro-1H-indazol-4-yl)-7-(8-ethyl-8-azabicyclo[3.2.1]oct-3-yl)-2-pyridin-4-ylpyrazolo[1,5-a]pyrimidine, trifluoro acetate salt] the figure was 0.002 µM; with `CCOC(=O)N1C2CCC1CC(c1ccnc3c(-c4ccc5cc[nH]c5c4)c(-c4ccncc4)nn13)C2` (stereo not drawn) [Example 85, Ethyl 3-[3-(1H-indol-6-yl)-2-pyridin-4-ylpyrazolo[1,5-a]pyrimidin-7-yl]-8-azabicyclo[3.2.1]octane-8-carboxylate], 0.036 µM; with `CCN1C2CCC1CC(c1ccnc3c(-c4ccc5cc[nH]c5c4)c(-c4ccncc4)nn13)C2` (stereo not drawn) [Example 87, 7-(8-Ethyl-8-azabicyclo[3.2.1]oct-3-yl)-3-(1H-indol-6-yl)-2-pyridin-4-ylpyrazolo[1,5-a]pyrimidine], 0.032 µM.
As for `CCN1C2CCC1CC(c1ccnc3c(-c4cccc5[nH]ncc45)c(-c4ccncc4)nn13)C2` (stereo not drawn) [Example 90, 7-(8-Ethyl-8-azabicyclo[3.2.1]octan-3-yl)-3-(1H-indazol-4-yl)-2-(pyridin-4-yl)pyrazolo[1,5-a]pyrimidine], the IC50 (read-out: Mean IC50) was determined as 0.046 µM.
The same measure, in the same setting: with `CCOC(=O)N1C2CCC1CC(c1ccnc3c(-c4cccc(-c5nnco5)c4)c(-c4ccncc4)nn13)C2` (stereo not drawn) [Example 91, Ethyl 3-(3-(3-(1,3,4-oxadiazol-2-yl)phenyl)-2-(pyridin-4-yl)pyrazolo[1,5-a]pyrimidin-7-yl)-8-azabicyclo[3.2.1]octane-8-carboxylate] the figure was 0.162 µM; with `Fc1cc(N2C[C@@H]3C[C@H]2CN3)ccc1-c1ccnc2c(-c3cccc4[nH]ncc34)c(-c3ccncc3)nn12` [Example 93, 7-{4-[(1S,4S)-2,5-diazabicyclo[2.2.1]hept-2-yl]-2-fluorophenyl}-3-(1H-indazol-4-yl)-2-pyridin-4-ylpyrazolo[1,5-a]pyrimidine], less than 0.0003 µM.
Still for that read-out and setting: to `CN1C[C@@H]2C[C@H]1CN2c1ccc(-c2ccnc3c(-c4cccc5[nH]ncc45)c(-c4ccncc4)nn23)c(F)c1` [Example 94, 7-{2-Fluoro-4-[(1S,4S)-5-methyl-2,5-diazabicyclo[2.2.1]hept-2-yl]phenyl}-3-(1H-indazol-4-yl)-2-pyridin-4-yl pyrazolo[1,5-a]pyrimidine] belongs 0.0001 µM; to `C[N+]1([O-])C[C@@H]2C[C@H]1CN2c1ccc(-c2ccnc3c(-c4cccc5[nH]ncc45)c(-c4ccncc4)nn23)c(F)c1` (stereo partly drawn) [Example 95, 7-{2-fluoro-4-[(1S,4S)-5-methyl-5-oxido-2,5-diazabicyclo[2.2.1]hept-2-yl]phenyl}-3-(1H-indazol-4-yl)-2-pyridin-4-ylpyrazolo[1,5-a]pyrimidine], 0.00059 µM.
The same measure, in the same setting: to `Clc1cc(N2C[C@@H]3C[C@H]2CN3)ccc1-c1ccnc2c(-c3cccc4[nH]ncc34)c(-c3ccncc3)nn12` [Example 97, 7-[2-Chloro-4-((1S,4S)-2,5-diaza-bicyclo[2.2.1]hept-2-yl)-phenyl]-3-(1H-indazol-4-yl)-2-pyridin-4-yl-pyrazolo[1,5-a]pyrimidine bis-hydrochloride salt] belongs less than 0.0003 µM.
`CN1C[C@@H]2C[C@H]1CN2c1ccc(-c2ccnc3c(-c4cccc5[nH]ncc45)c(-c4ccncc4)nn23)c(Cl)c1` [Example 98, 7-[2-Chloro-4-((1S,4S)-5-methyl-2,5-diaza-bicyclo[2.2.1]hept-2-yl)-phenyl]-3-(1H-indazol-4-yl)-2-pyridin-4-yl-pyrazolo[1,5-a]pyrimidine]: the IC50 (read-out: Mean IC50) was less than 0.0003 µM.
Take `CC(C)(C)OC(=O)N1C[C@@H]2C[C@H]1CN2c1cc(F)c(-c2ccnc3c(-c4cccc5[nH]ncc45)c(-c4ccncc4)nn23)c(F)c1` [Example 99, tert-butyl(1S,4S)-5-{3,5-difluoro-4-[3-(1H-indazol-4-yl)-2-pyridin-4-ylpyrazolo[1,5-a]pyrimidin-7-yl]phenyl}-2,5-diazabicyclo[2.2.1]heptane-2-carboxylate]: the IC50 (read-out: Mean IC50) was found to be 0.0016 µM.
`Fc1cc(N2C[C@@H]3C[C@H]2CN3)cc(F)c1-c1ccnc2c(-c3cccc4[nH]ncc34)c(-c3ccncc3)nn12` [Example 100, 7-(4-((1S,4S)-2,5-diazabicyclo[2.2.1]heptan-2-yl)-2,6-difluorophenyl)-3-(1H-indazol-4-yl)-2-(pyridin-4-yl)pyrazolo[1,5-a]pyrimidine]: the IC50 (read-out: Mean IC50) is less than 0.0002 µM.
The same measure, in the same setting: to `CN1C[C@@H]2C[C@H]1CN2c1cc(F)c(-c2ccnc3c(-c4cccc5[nH]ncc45)c(-c4ccncc4)nn23)c(F)c1` [Example 101, 7-{2,6-difluoro-4-[(1S,4S)-5-methyl-2,5-diazabicyclo[2.2.1]hept-2-yl]phenyl}-3-(1H-indazol-4-yl)-2-pyridin-4-yl pyrazolo[1,5-a]pyrimidine] belongs less than 0.0001 µM.
